Patent publication US7160867B2 (Isotechnika, Inc., priority 2003, dated 2007)
“Also recorded” adds a separate entry of the source.

Key:
[1] = Hydrolysis of rapamycin carbohydrate derivatives in human whole blood; format: in vitro ADME; settings: spiked in human whole blood; free rapamycin by HPLC at 1 hour
[2] = Stability toward hydrolysis in acidic media; format: physicochemical; settings: 70/30 methanol/0.1N HCl (pH 1.5); free rapamycin by HPLC at 1 hour
washed human platelets = test: Washed human platelet aggregation assay; settings: 25 μg/ml, 2 μM ADP, after 8 minutes, FIG. 11
[3] = system: primary blood lymphocyte cultures (PBMC); test: In vitro immunosuppressive activity, PBMC proliferation (alamar blue); format: cell-based; settings: 3-day culturing, FIG. 5
[4] = Pharmacokinetic profiles in rats after oral dosing (rapamycin in whole blood by LC/MS); format: in vivo, Sprague Dawley rats; settings: 2.5 or 10 mg/kg
Protocol: The pharmacokinetic profiles in rats of selected rapamycin carbohydrate derivatives were determined to investigate the ability of the derivatives to deliver free rapamycin into the bloodstream in vivo. […] Whole blood was extracted via jugular bleed over 24 hours and frozen at −20° C. until analysis. Whole blood was analyzed by Liquid Chromatography Mass Spectrometry for the presence of rapamycin.

[5] = system: heterotopic heart allografts; test: Graft survival of heterotopic heart allografts in rats; format: in vivo, Wistar Furth rats to Lewis rats
Excerpt: If graft dysfunction was noted during the 30-day post-transplantation period, the animal was sacrificed. If the animal survived longer than 30 days post-transplantation, the test and control articles were discontinued and the animal was allowed to continue until graft dysfunction or up to 100 days post-transplantation.

Sprague-Dawley rats = test: Serum cholesterol levels in rats; format: in vivo; settings: 2.5 mg/kg/day for 12 days
Protocol: Cholesterol levels were measured at the 24-hour trough level on day 11.

Beagle dogs = test: Gastrointestinal tolerability in beagle dogs
[6] = [14C]-rapamycin, healthy male volunteers; cited from earlier work
[7] = in plasma and in low and neutral pH buffers at 37° C.; cited from earlier work
[8] = 2.5 mg/kg/day oral gavage, day -3 to day 30, N = 6 (derivative n = 5)

Row | Compound | Extent of Hydrolysis (%) [1] [%] | Extent of Hydrolysis (%) [2] [%] | platelet aggregation (washed human platelets) | cell proliferation inhibition / immunosuppressive activity [3] | time to maximum concentration of rapamycin in blood ([4]; FIG. 6) | prolonged survival of the graft over the vehicle control ([5]; 2.5 mg/kg/day) [%] | Average Survival Time (days post-transplant) Mean ± SEM [5, 8] [days post-transplant] | prolonged survival of the graft over the vehicle control ([5]; 10 mg/kg/day) [%] | Average Survival Time (days post-transplant) Mean ± SEM ([5]; 10 mg/kg/day oral gavage, day -3 to day 30, N = 6) [days post-transplant] | serum cholesterol level relative to vehicle control group (Sprague-Dawley rats; 24-hour trough on day 11, FIG. 9) | serum cholesterol level relative to rapamycin group (Sprague-Dawley rats; 24-hour trough on day 11, p<0.01, FIG. 9) | Observations (Beagle dogs; beagle dog 4, oral dose 1 mg/kg, rapamycin given one week after the derivative, 1 mg/kg) | Observations (Beagle dogs; beagle dog 4, oral dose 1 mg/kg, rapamycin given one week after the derivative, listed as 42-O-(D-fructosylcarbonyl)rapamycin, 1 mg/kg) | Observations (Beagle dogs; beagle dogs, single oral dose 10 mg/kg, 10 mg/kg) | Observations (Beagle dogs; beagle dogs, single oral dose 10 mg/kg, listed as 42-O-(D-fructosylcarbonyl)rapamycin, 10 mg/kg) | share of the total radioactivity in blood [6] | time to maximum concentration of rapamycin in blood ([4]; FIGS. 6 and 7) | half-life of degradation [7]
1 | CO[C@H]1C[C@@H]2CC[C@@H](C)[C@@](O)(O2)C(=O)C(=O)N2CCCC[C@H]2C(=O)O[C@H]([C@H](C)C[C@@H]2CC[C@@H](O)[C@H](OC)C2)CC(=O)[C@H](C)/C=C(\C)[C@@H](OC(=O)OCC2(O)OC[C@@H](O)[C@@H](O)[C@@H]2O)[C@@H](OC)C(=O)[C@H](C)C[C@H](C)/C=C/C=C/C=C/1C (stereo partly drawn) [31-O-(D-Fructosylcarbonyl)rapamycin] | 23 ± 0.5 | <1 | – | – | – | – | – | – | – | – | – | – | – | – | – | – | – | –
2 | CO[C@H]1C[C@@H]2CC[C@@H](C)[C@@](O)(O2)C(=O)C(=O)N2CCCC[C@H]2C(=O)O[C@H]([C@H](C)C[C@@H]2CC[C@@H](OC(=O)OCC3(O)OC[C@@H](O)[C@@H](O)[C@@H]3O)[C@H](OC)C2)CC(=O)[C@H](C)/C=C(\C)[C@@H](O)[C@@H](OC)C(=O)[C@H](C)C[C@H](C)/C=C/C=C/C=C/1C (stereo partly drawn) [42-O-(D-Fructosylcarbonyl)rapamycin] | 28 ± 2 | <1 | does not exhibit a measurable effect | equivalent to rapamycin | approximately 3 hours | 214 | 41 ± 4 | 341 | 57 ± 4 | not significantly different | significantly lower | Lethargic; also recorded: Recovered | slight lethargy | Normal | no overt physical changes | – | – | –
3 | CO[C@H]1C[C@@H]2CC[C@@H](C)[C@@](O)(O2)C(=O)C(=O)N2CCCC[C@H]2C(=O)O[C@H]([C@H](C)C[C@@H]2CC[C@@H](O)[C@H](OC)C2)CC(=O)[C@H](C)/C=C(\C)[C@@H](O)[C@@H](OC)C(=O)[C@H](C)C[C@H](C)/C=C/C=C/C=C/1C [Rapamycin] | – | – | – | – | – | – | 39 ± 4 | – | – | – | – | – | – | – | – | approximately 35% | approximately 30 minutes | less than 10 hours
